Measurements taken from article PMC6138237, “Machine intelligence decrypts β-lapachone as an allosteric 5-lipoxygenase inhibitor” (Chemical Science, 2018).
Read-outs that look alike come from different tables or passages of the source.

Columns and labels:
5-LO = target: T1, 5-LO (Homo sapiens, UniProt P09917); assay: 5-LO inhibition assay, Cerep (Method A, indirect fluorogenic readout, Rhodamine 123); type: biochemical
T1 sequence (P09917 1-674): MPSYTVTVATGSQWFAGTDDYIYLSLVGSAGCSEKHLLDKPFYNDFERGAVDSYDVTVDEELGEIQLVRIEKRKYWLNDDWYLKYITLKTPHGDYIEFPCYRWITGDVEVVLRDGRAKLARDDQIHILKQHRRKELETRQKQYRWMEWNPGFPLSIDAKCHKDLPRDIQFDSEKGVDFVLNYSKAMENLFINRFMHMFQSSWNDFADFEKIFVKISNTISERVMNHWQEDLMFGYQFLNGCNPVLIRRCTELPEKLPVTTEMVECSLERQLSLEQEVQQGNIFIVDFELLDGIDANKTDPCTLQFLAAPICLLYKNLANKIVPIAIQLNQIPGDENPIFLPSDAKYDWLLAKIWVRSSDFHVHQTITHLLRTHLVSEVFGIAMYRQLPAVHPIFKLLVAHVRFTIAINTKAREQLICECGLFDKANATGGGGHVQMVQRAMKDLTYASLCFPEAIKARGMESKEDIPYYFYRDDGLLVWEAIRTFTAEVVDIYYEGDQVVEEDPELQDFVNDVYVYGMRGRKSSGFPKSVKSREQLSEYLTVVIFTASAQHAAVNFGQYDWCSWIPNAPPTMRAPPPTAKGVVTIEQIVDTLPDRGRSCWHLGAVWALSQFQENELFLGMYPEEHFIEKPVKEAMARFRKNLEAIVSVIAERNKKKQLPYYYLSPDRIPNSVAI

Escherichia coli K12 = assay: Minimum inhibitory concentration assay, Escherichia coli; conditions: concentrations up to 50 µM
EP1 = target: T2, EP1 (Homo sapiens, UniProt P34995); assay: EP1 functional antagonist assay, Cerep (PGE2 3 nM, intracellular Ca2+)
T2 sequence (P34995 1-402): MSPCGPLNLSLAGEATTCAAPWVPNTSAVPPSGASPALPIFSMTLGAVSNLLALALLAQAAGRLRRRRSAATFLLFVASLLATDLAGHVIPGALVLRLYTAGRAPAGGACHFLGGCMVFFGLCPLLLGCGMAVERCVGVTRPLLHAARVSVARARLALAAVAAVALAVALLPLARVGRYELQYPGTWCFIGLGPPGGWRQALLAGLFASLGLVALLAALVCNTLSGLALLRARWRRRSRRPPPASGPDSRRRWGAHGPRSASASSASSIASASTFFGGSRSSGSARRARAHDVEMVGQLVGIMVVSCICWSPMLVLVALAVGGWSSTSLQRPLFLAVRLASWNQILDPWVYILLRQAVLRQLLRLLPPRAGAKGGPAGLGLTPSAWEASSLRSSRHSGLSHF

15-LO-2 = target: T3, 15-LO-2 (Homo sapiens, UniProt O15296); assay: 15-LO-2 inhibition assay, Cerep (Method A, fluorometry); type: biochemical; conditions: 5 µM
T3 sequence (O15296 1-676): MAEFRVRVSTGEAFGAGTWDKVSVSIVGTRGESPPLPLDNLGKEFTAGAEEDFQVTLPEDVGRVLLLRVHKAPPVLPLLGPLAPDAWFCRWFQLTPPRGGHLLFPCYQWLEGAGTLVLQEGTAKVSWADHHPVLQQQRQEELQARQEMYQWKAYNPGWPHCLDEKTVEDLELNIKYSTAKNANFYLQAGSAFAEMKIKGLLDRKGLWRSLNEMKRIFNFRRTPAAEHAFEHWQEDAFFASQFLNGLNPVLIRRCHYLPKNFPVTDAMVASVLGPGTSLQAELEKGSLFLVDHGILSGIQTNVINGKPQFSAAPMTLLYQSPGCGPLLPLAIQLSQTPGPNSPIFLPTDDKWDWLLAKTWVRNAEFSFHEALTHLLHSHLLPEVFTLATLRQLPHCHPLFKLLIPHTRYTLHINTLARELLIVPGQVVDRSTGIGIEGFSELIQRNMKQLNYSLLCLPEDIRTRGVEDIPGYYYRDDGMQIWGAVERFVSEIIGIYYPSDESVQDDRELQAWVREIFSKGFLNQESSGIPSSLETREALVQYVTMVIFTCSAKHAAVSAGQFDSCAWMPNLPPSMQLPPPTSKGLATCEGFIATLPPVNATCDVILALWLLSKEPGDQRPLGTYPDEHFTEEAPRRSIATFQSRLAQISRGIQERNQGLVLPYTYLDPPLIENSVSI

IKKα = target: T4, IKKα (Homo sapiens, UniProt O15111); assay: ExpresS Diversity Kinase Profile, Cerep (LANCE): IKKα; type: biochemical
T4 sequence (O15111 1-745): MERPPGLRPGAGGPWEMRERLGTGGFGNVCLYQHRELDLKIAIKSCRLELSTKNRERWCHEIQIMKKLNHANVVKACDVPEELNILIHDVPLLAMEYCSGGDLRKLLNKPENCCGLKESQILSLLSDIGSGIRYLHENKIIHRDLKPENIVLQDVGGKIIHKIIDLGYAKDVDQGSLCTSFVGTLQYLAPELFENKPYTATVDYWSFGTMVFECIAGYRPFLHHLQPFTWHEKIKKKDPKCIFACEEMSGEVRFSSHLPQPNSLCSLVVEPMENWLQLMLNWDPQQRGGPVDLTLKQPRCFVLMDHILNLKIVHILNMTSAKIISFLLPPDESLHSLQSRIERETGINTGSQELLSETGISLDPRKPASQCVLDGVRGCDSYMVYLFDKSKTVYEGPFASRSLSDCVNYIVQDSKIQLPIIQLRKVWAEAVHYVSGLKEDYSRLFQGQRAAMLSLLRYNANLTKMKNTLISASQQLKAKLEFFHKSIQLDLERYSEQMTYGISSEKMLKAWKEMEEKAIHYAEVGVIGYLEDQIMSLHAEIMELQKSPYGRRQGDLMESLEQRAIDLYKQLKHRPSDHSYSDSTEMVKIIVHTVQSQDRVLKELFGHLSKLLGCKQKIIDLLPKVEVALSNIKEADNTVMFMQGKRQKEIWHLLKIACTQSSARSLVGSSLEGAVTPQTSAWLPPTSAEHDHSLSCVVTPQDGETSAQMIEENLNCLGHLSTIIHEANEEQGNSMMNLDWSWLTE

CC1(C)CCC2=C(O1)c1ccccc1C(=O)C2=O [β-Lapachone]
ligand efficiency (LE) (5-LO; 5-LO): 0.44 | inhibition at 5 µM (5-LO; 5-LO, n = 2, read-out: % inhibition of control values, Mean): 102% | inhibition at 5 µM (5-LO; 5-LO, read-out: % inhibition of control values, 1st measure): 103% | inhibition at 5 µM (5-LO; 5-LO, read-out: % inhibition of control values, 2nd measure): 99.8% | inhibition at 150 µM (5-LO; 5-LO, 150 µM, read-out: % inhibition of control values, 1st measure): 98.4% | inhibition at 150 µM (5-LO; 5-LO, 150 µM, read-out: % inhibition of control values, 2nd measure): 92.9% | IC50 (5-LO; 5-LO, indirect fluorogenic readout, read-out: Experimental –log(IC50 or KD) (converted)): 2510 nM | ligand efficiency (LE) (5-LO; 5-LO, listed as 1): > 0.30 | IC50 (5-LO; IC50, 5-LO, indirect fluorescence detection (Cerep), n = 2): 2100 nM | inhibition at 150 µM (5-LO; read-out: % inhibition of control values, Mean): 95.7% | phenotypic effects on Escherichia coli (Escherichia coli K12): No phenotypic effects | IC50 (EP1): > 100000 nM | inhibition at 5 µM (15-LO-2; n = 2, read-out: % inhibition of control values, Mean): -12.9% | inhibition at 5 µM (15-LO-2; read-out: % inhibition of control values, 1st measure): -12% | inhibition at 5 µM (15-LO-2; read-out: % inhibition of control values, 2nd measure): -13.8% | inhibition at 150 µM (IKKα; Flag: Interference, read-out: % Inhibition of control values, 1st measurement): 59.5% | inhibition at 150 µM (IKKα; Flag: Interference, read-out: % Inhibition of control values, 2nd measurement): 59.4% | inhibition at 150 µM (IKKα; n = 2, Flag: Interference, read-out: % Inhibition of control values, Mean): 59.5%
